{"source": "patent US10906909B2", "about": "“Treatment of cognitive and mood symptoms in neurodegenerative and neuropsychiatric disorders with ALPHA5-containing GABAA receptor agonists” (UWM Research Foundation, Inc., priority 2016, dated 2021)", "key": {"HEPG2": {"system": "HEPG2", "test": "Cytotoxicity assay (CellTiter-Glo), HEPG2", "assay_type": "cell-based, human", "conditions": "48 hours incubation", "protocol": "(§1) Human liver hepatocellular carcinoma (HEPG2) and human embryonic kidney 293 (HEK293) cell lines were purchased (ATCC) and cultured in 75 cm2 flasks (CellStar). Cells were grown in DMEM/High Glucose (Hyclone, #SH3024301) media to which non-essential amino acids (Hyclone, #SH30238.01), 10 mM HEPES (Hyclone, #SH302237.01), 5×106 units of penicillin and streptomycin (Hyclone, #SV30010), and 10% of heat inactivated fetal bovine serum (Gibco, #10082147) were added. Cells were harvested using 0.05% Trypsin (Hyclone, #SH3023601), washed with PBS, and dispensed into sterile white, optical bottom 384-well plates (NUNC, #142762). After three hours, small molecule solutions were transferred with a Tecan Freedom EVO liquid handling system equipped with a 100 nL pin tool (V&P Scientific). The controls (E)-10-(bromotriphenylphosphoranyl)decyl 4-(4-(tert-butyl)phenyl)-4-oxobut-2-enoate (400 μM in DMSO, positive control) and DMSO (negative control). The cells were incubated for 48 hours followed by the addition of CellTiter-Glo™, a luminescence-based cell viability assay (Promega, Madison, Wis.). All luminescence readings were performed on a Tecan Infinite M1000 plate reader. The assay was carried out in quadruplet with three independent runs. The data was normalized to the controls and analyzed by nonlinear regression (GraphPad Prism)."}, "[1]": {"test": "Pharmacokinetics in mice (plasma, liver, brain)", "conditions": "for concentration at 20 min: C57/BL6, mouse, ip, 10 mg/kg"}, "HEK293": {"system": "HEK293", "test": "Cytotoxicity assay (CellTiter-Glo), HEK293", "assay_type": "cell-based, human", "conditions": "48 hours incubation", "protocol": "as §1"}, "[2]": {"molecular_target": "T1, alpha 5 subunit GABAA receptor (Rattus norvegicus, UniProt P18508+P19969)", "T1 construct": "Full-length cDNAs for GABAA receptor subtypes; expressed in transfected cells; host or cells: HEK-293T (GenHunter, Nashville, Tenn.), transient calcium phosphate transfection", "T1 sequence (P19969 32-464 limits assumed)": "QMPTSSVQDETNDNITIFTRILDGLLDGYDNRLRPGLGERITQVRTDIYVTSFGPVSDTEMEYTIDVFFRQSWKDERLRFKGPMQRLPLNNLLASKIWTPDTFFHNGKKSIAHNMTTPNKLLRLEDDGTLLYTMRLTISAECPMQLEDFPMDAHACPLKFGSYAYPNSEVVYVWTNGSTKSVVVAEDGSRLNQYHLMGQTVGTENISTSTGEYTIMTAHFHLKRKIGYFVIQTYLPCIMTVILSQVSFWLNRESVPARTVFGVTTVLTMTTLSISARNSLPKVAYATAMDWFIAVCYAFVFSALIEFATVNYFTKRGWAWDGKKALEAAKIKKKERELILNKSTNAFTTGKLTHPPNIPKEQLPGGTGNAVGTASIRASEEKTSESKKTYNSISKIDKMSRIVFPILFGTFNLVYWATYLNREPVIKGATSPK", "T1 sequence (P63079 26-473 partner)": "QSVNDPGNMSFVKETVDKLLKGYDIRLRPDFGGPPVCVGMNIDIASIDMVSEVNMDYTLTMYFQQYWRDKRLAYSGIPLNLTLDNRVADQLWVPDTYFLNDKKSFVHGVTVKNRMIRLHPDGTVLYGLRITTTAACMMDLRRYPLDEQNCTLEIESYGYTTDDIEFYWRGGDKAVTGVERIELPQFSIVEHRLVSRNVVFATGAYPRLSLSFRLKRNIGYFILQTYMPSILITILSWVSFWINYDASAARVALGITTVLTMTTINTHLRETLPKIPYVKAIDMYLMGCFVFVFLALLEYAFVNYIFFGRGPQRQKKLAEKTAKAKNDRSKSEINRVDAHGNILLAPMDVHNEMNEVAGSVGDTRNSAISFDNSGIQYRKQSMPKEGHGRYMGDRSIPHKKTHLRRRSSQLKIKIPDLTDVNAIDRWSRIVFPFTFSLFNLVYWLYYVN", "T1 sequence (P18508 39-466)": "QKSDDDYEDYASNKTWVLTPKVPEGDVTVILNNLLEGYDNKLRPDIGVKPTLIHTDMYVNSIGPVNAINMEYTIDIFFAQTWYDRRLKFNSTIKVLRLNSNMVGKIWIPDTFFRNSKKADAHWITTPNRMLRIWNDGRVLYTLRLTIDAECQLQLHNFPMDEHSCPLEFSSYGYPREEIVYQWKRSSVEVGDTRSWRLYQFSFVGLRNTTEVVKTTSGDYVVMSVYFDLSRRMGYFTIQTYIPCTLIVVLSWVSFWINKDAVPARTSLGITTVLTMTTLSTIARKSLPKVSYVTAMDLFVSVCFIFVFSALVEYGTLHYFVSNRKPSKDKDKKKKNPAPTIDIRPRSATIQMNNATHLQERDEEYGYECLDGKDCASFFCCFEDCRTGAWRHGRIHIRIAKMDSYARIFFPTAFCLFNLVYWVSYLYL", "test": "Electrophysiology, whole-cell patch clamp in transfected HEK-293T cells", "assay_type": "cell-based", "conditions": "for percent of response to GABA: 1 μM compound, HEK-293T cells transfected with alpha 5 subunit; for relative size of response to GABA among the four compounds: 1 μM, alpha 5, FIG. 26", "description": "Transfection of Mammalian Cells and Electrophysiological Recordings. Full-length cDNAs for GABAA receptor subtypes (generously provided by Dr. Robert Macdonald, Vanderbilt University and Dr. David Weiss, University of Texas Health Science Center, San Antonio, Tex.) in mammalian expression vectors were transfected into the human embryonic kidney cell line HEK-293T (GenHunter, Nashville, Tenn.) (Chestnut et al, 1996, J. Immunol. Methods 193, 17-27). All subtypes were rat clones except for α2, which was a human clone. Cells were maintained in Dulbecco's modified Eagle's medium (DMEM) plus 10% fetal bovine serum, 100 IU/mL penicillin, and 100 μg/mL streptomycin.\nHEK-293T cells were transiently transfected using calcium phosphate precipitation. Plasmids encoding GABAA receptor subtype cDNAs were added to the cells in 1:1:1 ratios (α:β:γ) of 2 μg each.31 For identification of positively transfected cells, 1 μg of the plasmid pHook-1 (Invitrogen Life Technologies, Grand Island N.Y.) containing cDNA encoding the surface antibody sFv was also transfected into the cells.11 Following a 4-6 h incubation at 3% CO2, the cells were treated with a 15% glycerol solution in BBS buffer (50 mM BES(N,N-bis[2-hydroxyethyl]-2-aminoethanesulfonic acid), 280 mM NaCl, 1.5 mM Na2HPO4) for 30 s. The selection procedure for pHook expression was performed 18-52 h later. The cells were passaged and mixed for 30-60 min with 3-5 μL of magnetic beads coated with antigen for the pHook antibody (approximately 6×105 beads).11 Bead-coated cells were isolated using a magnetic stand. The selected cells were resuspended into supplemented DMEM, plated onto glass coverslips treated with poly L-lysine and collagen, and used for recordings the next day.\nCells were patch-clamped at −50 mV in the whole-cell recording configuration. The bath solution consisted of (in mM): 142 NaCl, 8.1 KCl, 6 MgCl2, 1 CaCl2), and 10 HEPES (4-(2-hydroxyethyl)-1-piperazineethanesulfonic acid) with pH=7.4 and osmolarity adjusted to 295-305 mOsm. Recording electrodes were filled with a solution of (in mM) 153 KCl, 1 MgCl2, 5 K-EGTA (ethylene glycol-bis(β-aminoethyl ether N,N,N′N′-tetraacetate), and 10 HEPES with pH=7.4 and osmolarity adjusted to 295-305 mOsm. GABA was diluted into the bath solution from freshly made or frozen stocks in water. Compounds were dissolved in DMSO and diluted into bath solution with the highest DMSO level applied to cells of 0.01%. Patch pipettes were pulled from borosilicate glass (World Precision Instruments, Sarasota, Fla.) on a two-stage puller (Narishige, Japan) to a resistance of 5-10 MO. Solutions containing GABA or GABA+ compounds were applied to cells for 5 s. using a 3-barrelled solution delivery device controlled by a computer-driven stepper motor (SF-77B, Harvard Apparatus, Holliston, Mass., open tip exchange time of <50 ms). There was a continuous flow of external solution through the chamber. Currents were recorded with an Axon 200B (Foster City, Calif.) patch clamp amplifier.\nWhole-cell currents were analyzed using the programs Clampfit (pClamp9 suite, Axon Instruments, Foster City, Calif.) and Prism (Graphpad, San Diego, Calif.). Concentration-response data was fit with a four-parameter logistic equation (current=[minimum current+(maximum current−minimum current)]/1+(10(logEC50−log[modulator])n) where n represents the Hill number. All fits were made to normalized data with current expressed as a percentage of the response to GABA alone for each cell."}, "mice": {"system": "mice", "test": "Home cage locomotor activity in mice", "assay_type": "in vivo, mouse", "conditions": "vs vehicle", "protocol": "Mice were placed in a clean cage, similar to their home-cage (28.2×17.1 cm), without bedding and lid to allow video recording from the top. Tacking was performed and distance travelled (30 min session) was analyzed using ANY-Maze™ tracking software (version 499z) to assess the locomotor activity in a home-cage environment. Animals received a single dose of compound or vehicle solution 1 hour before testing.\nDrug preparation and administration: All drugs were diluted in a vehicle solution containing 85% H2O, 14% propylene glycol (Sigma Aldrich) and 1% Tween 80 (Sigma Aldrich). Working solutions were prepared at a concentration of 20 mg/mL and administered i.p. adjusted to the body weight of each animal. Doses used were either 1, 5 or 10 mg/kg. For all locomotor activity experiments, animals were acutely injected i.p. with vehicle or αPAM, 1 hour before the beginning of the test."}, "[3]": {"conditions": "1 mg/kg i.p. 60 min before testing"}, "[4]": {"conditions": "5 mg/kg i.p. 60 min before testing"}, "[5]": {"conditions": "10 mg/kg i.p. 60 min before testing"}}, "note": "“Also recorded” adds a separate entry of the source.", "data": [{"smiles": "C#Cc1ccc2c(c1)C(c1ccccc1F)=N[C@@H](C)c1c(C(=O)N(C)C)ncn1-2", "note": "[GL-I-54, (S)-8-ethynyl-6-(2-fluorophenyl)-N,N,4-trimethyl-4H-benzo[f]imidazo[1,5-a][1,4]diazepine-3-carboxamide]", "values": [{"measurement": "HEPG2 LD50", "setting": "HEPG2", "value": ">400", "unit": "µM"}, {"measurement": "molar concentration range reached in mouse brain tissue", "setting": "[1]; i.p. dosing at 3 mg/kg", "value": "high submicromolar to low micromolar values"}, {"measurement": "HEK293 LD50", "setting": "HEK293", "value": ">400", "unit": "µM"}]}, {"smiles": "C#Cc1ccc2c(c1)C(c1ccccc1F)=N[C@H](C)c1c(C(=O)N(C)C)ncn1-2", "note": "[GL-II-73, (R)-8-ethynyl-6-(2-fluorophenyl)-N,N,4-trimethyl-4H-benzo[f]imidazo[1,5-a][1,4]diazepine-3-carboxam]", "values": [{"measurement": "HEPG2 LD50", "setting": "HEPG2", "value": ">400", "unit": "µM"}, {"measurement": "molar concentration range reached in mouse brain tissue", "setting": "[1]; 10 mg/kg dose i.p.", "value": "micromolar range"}, {"measurement": "percent of response to GABA", "setting": "[2]", "value": "increased in the percent of response to GABA"}, {"measurement": "relative size of response to GABA among the four compounds", "setting": "[2]", "value": "greatest response"}, {"measurement": "locomotor activity (distance travelled, 30 min session)", "setting": "mice; [3]", "value": "no significant effect; also recorded: no effect on locomotor activity"}, {"measurement": "locomotor activity (distance travelled, 30 min session)", "setting": "mice; [4]", "value": "significant increase in locomotion; also recorded: significant increase in distance traveled"}, {"measurement": "locomotor activity (distance travelled, 30 min session)", "setting": "mice; [5]", "value": "significant increase in locomotion; also recorded: significant increase in distance traveled"}, {"measurement": "HEK293 LD50", "setting": "HEK293", "value": ">200", "unit": "µM"}]}, {"smiles": "C#Cc1ccc2c(c1)C(c1ccccc1F)=N[C@H](C)c1c(C(=O)NCC)ncn1-2", "note": "[GL-II-74, (R)—N-ethyl-8-ethynyl-6-(2-fluorophenyl)-4-methyl-4H-benzo[f]imidazo[1,5-a][1,4]diazepine-3-carboxamide]", "values": [{"measurement": "molar concentration range reached in mouse brain tissue", "setting": "[1]; 10 mg/kg dose i.p.", "value": "micromolar range"}, {"measurement": "percent of response to GABA", "setting": "[2]", "value": "increased in the percent of response to GABA"}, {"measurement": "relative size of response to GABA among the four compounds", "setting": "[2]", "value": "greatest response"}, {"measurement": "locomotor activity (distance travelled, 30 min session)", "setting": "mice; [3]", "value": "no significant effect; also recorded: no effect on locomotor activity"}, {"measurement": "locomotor activity (distance travelled, 30 min session)", "setting": "mice; [4]", "value": "no significant effect; also recorded: no effect on locomotor activity"}, {"measurement": "locomotor activity (distance travelled, 30 min session)", "setting": "mice; [5]", "value": "significant increase in locomotion; also recorded: significant increase in distance traveled"}]}, {"smiles": "C#Cc1ccc2c(c1)C(c1ccccc1F)=N[C@H](C)c1c(C(=O)NC3CC3)ncn1-2", "note": "[GL-II-75, (R)—N-cyclopropyl-8-ethynyl-6-(2-fluorophenyl)-4-methyl-4H-benzo[f]imidazo[1,5-a][1,4]diazepine-3-carboxamide]", "values": [{"measurement": "molar concentration range reached in mouse brain tissue", "setting": "[1]; 10 mg/kg dose i.p.", "value": "micromolar range"}, {"measurement": "percent of response to GABA", "setting": "[2]", "value": "increased in the percent of response to GABA"}, {"measurement": "relative size of response to GABA among the four compounds", "setting": "[2]", "value": "greatest response"}, {"measurement": "locomotor activity (distance travelled, 30 min session)", "setting": "mice; [3]", "value": "significant increase in locomotion; also recorded: significant increase in distance traveled"}, {"measurement": "locomotor activity (distance travelled, 30 min session)", "setting": "mice; [4]", "value": "no significant effect; also recorded: no effect on locomotor activity"}, {"measurement": "locomotor activity (distance travelled, 30 min session)", "setting": "mice; [5]", "value": "significant increase in locomotion; also recorded: significant increase in distance traveled"}]}, {"smiles": "C#Cc1ccc2c(c1)C(c1ccccc1F)=N[C@H](C)c1c(C(=O)N3CCCC3)ncn1-2", "note": "[GL-II-76, (R)-(8-ethynyl-6-(2-fluorophenyl)-4-methyl-4H-benzo[f]imidazo[1,5-a][1,4]diazepin-3-yl)(pyrrolidin-1-yl)methanone]", "values": [{"measurement": "HEPG2 LD50", "setting": "HEPG2", "value": ">400", "unit": "µM"}, {"measurement": "concentration at 20 min", "setting": "[1]; brain", "value": "204 ± 101", "unit": "ng/g"}, {"measurement": "concentration at 20 min", "setting": "[1]; liver", "value": 4360, "unit": "ng/g"}, {"measurement": "concentration at 20 min", "setting": "[1]; plasma", "value": "605 ± 198", "unit": "ng/mL"}, {"measurement": "brain penetrance", "setting": "[1]; mice and rats", "value": "brain-penetrant at the exception of GI-II-76"}, {"measurement": "brain concentrations, suitability for CNS-active drug", "setting": "[1]; pilot cassette study, mice and rats", "value": "suboptimal"}, {"measurement": "percent of response to GABA", "setting": "[2]", "value": "increased in the percent of response to GABA"}, {"measurement": "HEK293 LD50", "setting": "HEK293", "value": ">100", "unit": "µM"}]}, {"smiles": "C#Cc1ccc2c(c1)C(c1ccccc1F)=N[C@H](C)c1c(C(=O)NC)ncn1-2", "note": "[MP-III-022]", "values": [{"measurement": "HEPG2 LD50", "setting": "HEPG2", "value": ">200", "unit": "µM"}, {"measurement": "locomotor activity (distance travelled, 30 min session)", "setting": "mice; i.p. 60 min before testing, dose not given", "value": "no significant difference; also recorded: no effect"}, {"measurement": "HEK293 LD50", "setting": "HEK293", "value": ">100", "unit": "µM"}]}]}
